The values that follow come from BindingDB's records for doi:10.1080/14756360310001650200 (Universit&Eacute, 2004).

Structures are written as SMILES.

One may read the IC50 as the midpoint of a concentration-inhibition curve. A low value points to higher potency.

The experiment has as its target T1, Chymase (Homo sapiens, UniProt P23946).
T1 sequence (P23946 whole entry): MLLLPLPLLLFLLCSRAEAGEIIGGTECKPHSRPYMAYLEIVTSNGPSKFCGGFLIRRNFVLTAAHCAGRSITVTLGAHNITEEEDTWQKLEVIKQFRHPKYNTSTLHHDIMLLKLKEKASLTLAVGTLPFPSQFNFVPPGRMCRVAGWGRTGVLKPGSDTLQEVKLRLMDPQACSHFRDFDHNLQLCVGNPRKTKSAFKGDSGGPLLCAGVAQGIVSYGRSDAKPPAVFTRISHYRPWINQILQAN
Put plainly: Enzyme Inhibition Assay. An excerpt:
Enzyme inhibitory activity using recombinant human chymase.
With `Cc1ccc(S(=O)(=O)n2c(O)c3n(c2=O)-c2ccccc2C3)cc1` [Tetrahydroisoquinoline hydantoin derivative, 3a], it took 172 µM to reach half-maximal inhibition (IC50).

Turning to `O=c1n2c(c(O)n1S(=O)(=O)c1ccc3ccccc3c1)Cc1ccccc1C2` [Tetrahydroisoquinoline hydantoin derivative, 5d], the IC50 is 17.5 µM. This IC50 lies about 9.8-fold lower than the previous one. For `Cc1ccc(S(=O)(=O)n2c(O)c3n(c2=O)Cc2ccccc2C3)cc1C` [Tetrahydroisoquinoline hydantoin derivative, 5b] the value was 42.8 µM; for `Cc1ccc(S(=O)(=O)n2c(O)c3n(c2=O)-c2ccccc2C3)cc1C` [Tetrahydroisoquinoline hydantoin derivative, 3b], 206 µM; for `O=c1n2c(c(O)n1S(=O)(=O)c1ccc3ccccc3c1)Cc1ccccc1-2` [Tetrahydroisoquinoline hydantoin derivative, 3d], 86.8 µM. To `Cc1ccc(S(=O)(=O)N2C(=O)[C@@H]3Cc4ccccc4CN3C2=O)cc1` [Tetrahydroisoquinoline hydantoin derivative, 5a] belongs 49 µM; to `O=c1n2c(c(O)n1S(=O)(=O)c1ccc(Cl)c(Cl)c1)Cc1ccccc1-2` [Tetrahydroisoquinoline hydantoin derivative, 3c], 374 µM.
